# Data reported in paper PMC9050674, “Structure-based inhibitor design for reshaping bacterial morphology” (Communications Biology, 2022).
# Several values for one entry are separate records, joined by “and”; a condition that tells them apart may be missing. Equal values may be shown once.
# Tests used:
# Pgp3 H247A variant = test: ITC with inactive Pgp3 H247A variant; type: binding, C. jejuni; conditions: ITC at 298 K, Pgp3 H247A variant (used to prevent turnover of substrate)
# Description: (§1) The gene encoding the amino-acid sequence of Glu21–Gln273 of Pgp3 from C. jejuni (strain ATCC 33560) was cloned into the expression vector pET-21a (Novagen) producing the recombinant wild-type Pgp3 protein with the C-terminal His6-tag ([…]). The protein expression and purification were conducted according to previously described methods with exception. The HiTrap chelating HP (GE Healthcare) column was washed with the lysis buffer containing 60 mM imidazole and the protein was eluted with a linear gradient from 100 to 500 mM imidazole. The protein was further purified by gel filtration on a HiLoad 16/60 Superdex 200 prep-grade column (GE Healthcare), which was previously equilibrated with 20 mM Tris-HCl pH 8.0 and 200 mM NaCl. The fractions containing the Pgp3 protein were pooled and concentrated to 15 mg mL^−1 for crystallization. The variants of Pgp3 (S169A, R195A, H216A, and H247A) were generated by site-directed mutagenesis using primer sets in Supplementary Table 1 and were purified as described for the WT Pgp3.
# Using a micro-syringe, 2.5 μL of each inhibitor (2.25 mM) was added at intervals of 200 s to the Pgp3 solution in the cell with gentle stirring (125 rpm). The same ITC condition was applied to evaluate the KD values of BMK-S101 for each Pgp3 variant. All data were fitted to the single-binding-site model. Fitted curves were generated using GraphPad Prism 7. […]
# C. jejuni ATCC 33560 WT = test: Cell morphology change monitored by TEM; type: cell-based, Campylobacter jejuni; conditions: 37 °C, 24 h; for minimum concentration causing morphological changes (helical to curved-rod): KL-L9P used for improved permeability
# Text: Next, we investigated whether our inhibitors could transform C. jejuni from the helical- to curved-rod morphology on exposure to the inhibitors (Fig. 5). […] To investigate the effect of inhibitors on the morphology of C. jejuni cells, we exposed the cells to the inhibitors and checked whether the morphology could be altered.
# Cell-morphology change of C. jejuni upon inhibitor treatment was monitored, as described previously with modifications. Briefly, overnight cultures of C. jejuni were harvested from MH agar plates and suspended in MH broth to approximately 1 × 10^6 colony-forming unit (CFU)/mL. A total of 500 μL of the diluted bacterial culture was added into each well of a 24-well plate with 5 μL of two-fold serial dilutions of inhibitor. For the control strain with no inhibitor, the same volume of dilution buffer (20 mM Tris-HCl pH 8.0 and 200 mM NaCl) was used. The plate was incubated under a micro-aerobic condition at 37 °C for 24 h in the static condition. After incubation, 10 μL of the bacterial cultures was placed on formvar/carbon-coated copper grids (200 mesh) and negatively stained with 2% uranyl acetate for 2 s.
# Pgp3 WT = Pgp3 WT (Campylobacter jejuni, UniProt Q0P921); test: Isothermal-titration calorimetry (ITC) with Pgp3 WT; type: binding, C. jejuni
# Description: as §1
# Using a micro-syringe, 2.5 μL of each inhibitor (2.25 mM) was added at intervals of 200 s to the Pgp3 solution in the cell with gentle stirring (125 rpm). The same ITC condition was applied to evaluate the KD values of BMK-S101 for each Pgp3 variant. All data were fitted to the single-binding-site model. Fitted curves were generated using GraphPad Prism 7. Data are mean ± SEM from triplicate experiments and the ITC thermograms are representative of triplicate experiments.
# Pgp3 = Pgp3 (Campylobacter jejuni, UniProt Q0P921); test: biochemical; design: species or system C. jejuni
# Description: Because DABCYL/FITC is a typical FRET quencher–fluorophore pair, an increase in fluorescent signals can be directly detected when it is processed by Pgp3 (Tang et al., 2013). The kinetic parameters (kcat = 0.0209 ± 0.0006 s^−1 and KM = 6.6 ± 0.7 µM) for the substrate were obtained by fitting the data to the Michaelis-Menten equation (Supplementary Fig. 8a).
# The enzymatic assay for Pgp3 activity was determined using a fluorescein isothiocyanate (FITC) and 4′-([4′-(Dimethylamino)phenyl]-azo)-benzoic acid (DABCYL) pair for FRET. […] The excitation and emission spectra were set at 495 nm and 525 nm, respectively. Pgp3 (0.1 μM) in 20 mM HEPES pH 7.5, 200 mM NaCl, and 0.4 μM of zinc was used in this assay. The reaction was initiated by adding 3 μL of 0.015–2 mM substrate (final 1.56–200 μM) in the total volume of 30 μL of the reaction mixture. Initial velocities were calculated using slopes of fluorescence signal intensity in 3 min after the initiation of the reaction. In order to elucidate the inhibition mechanism of BMK-S301, initial velocities with various concentrations of substrates were measured in the presence of 40 μM BMK-S301. […] The same method was used for the determination of the IC50 values for inhibitors. Inhibitors in each concentration were pre-incubated with 0.1 μM of Pgp3 for 1 h on ice, and initial velocities were determined for 0.1, 10, 50, 100, 200, 500, and 1000 μM of each inhibitor in reaction with 10 μM of substrate. The IC50 values were calculated using GraphPad Prism 7.
# C. jejuni (ATCC 33560) = test: Drug accumulation assay (LC-MS); conditions: for µM (concentration in LC-MS sample): single replicates (First, Second, Third), total volume 200 (r6-r19) or 100 (r23-r30); for µM (concentration in LC-MS sample) / nmol/1011 CFUs / Total nmol: source data Fig. 5b; for nmol/1011 CFUs / Total nmol: single replicates; for Total nmol: total volume 200 or 100
# Description: The accumulation assay was adapted from two different methods[42],[43]. […] The culture was grown overnight at 42 °C under the micro-aerobic condition. The cells were harvested at 6000 g for 15 min and washed with 1 × PBS, followed by resuspension in pre-warmed 1 × PBS to ~10^10 CFU/mL. The cell suspension (1.2 mL) was dispensed into a 24-well plate. Each compound to be examined was added into each well (final concentration = 100 μM). […] After incubation with shaking at 37 °C for 20 min, OD600 of each sample was measured, and the cells were harvested at 6000 g for 10 min at 4 °C. The pellets were resuspended in 250 μL of water, followed by three cycles of Freeze-Thaw with a dry ice/ethanol bath and a 37 °C-heating block in order to extract the compounds from C. jejuni. The cells were pelleted at 13,000 g for 5 min at room temperature. The supernatants (220 μL) were transferred to new tubes. The pellets were resuspended in 100 μL of methanol with vigorous vortexing for 1 min, followed by pelleting as before. The supernatants (100 μL) were combined with the solutions previously collected. The residual cell debris were removed at 20,000 g for 15 min at room temperature. The supernatants (300 μL) were dried with Genevac™ miVac Centrifugal Concentrator at room temperature for 5 h. Finally, the samples were resuspended with appropriate solvents and analyzed by LC-MS.
# The suspension was centrifuged and the supernatant was analyzed by LC-MS. LC-MS systems consists of a Bruker impact II ultra-high resolution Qq-time-of-flight mass spectrometer using Hystar 5.0 SR1 software with a Waters Acquity UPLC H-Class system equipped with a quaternary solvent manager, a sample manager-FTN, and a photodiode array detector. The Bruker electrospray ionization source was operated in the positive ion mode, except for BMK-S301 (in the negative ion mode). […] A four-step 10-min LC gradient was as follows: 3 min at 98:2; 3 min to 85:15; 0.1 min to 98:2; 3.9 min at 98:2 for BMK-S101, -S203, and -S301. The ratio of the mobile phases (A = 0.1% formic acid in water, B = 0.1% formic acid in ACN) is given as A:B in LC gradients. […] The quantification was done by integrating the peak areas from extracted-ion chromatograms of corresponding m/z values of each compound.
# [1] = biological target: Pgp3 H247A variant (peptidoglycan peptidase 3, Campylobacter jejuni, Glu21-Gln273) (C. jejuni (strain ATCC 33560)); test: ITC
# Pgp3 R195A = biological target: T1, Pgp3 R195A (Campylobacter jejuni, UniProt Q0P921, R195A); test: ITC with Pgp3 R195A variant; type: binding, C. jejuni
# T1 sequence (Q0P921 21-273 R195A): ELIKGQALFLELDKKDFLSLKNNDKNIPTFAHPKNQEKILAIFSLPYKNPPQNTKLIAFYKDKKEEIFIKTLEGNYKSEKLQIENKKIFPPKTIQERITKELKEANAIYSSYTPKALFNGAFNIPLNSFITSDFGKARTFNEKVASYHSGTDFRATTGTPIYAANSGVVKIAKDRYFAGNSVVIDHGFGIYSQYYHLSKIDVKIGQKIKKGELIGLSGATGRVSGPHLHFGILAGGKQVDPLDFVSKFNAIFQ
# Description: (§2) To evaluate the contributions of the three residues (Ser169, Arg195, and His216) to binding of BMK-S101, they were substituted to Ala, and the effect of each mutation was evaluated using ITC (Fig. 2d and Supplementary Fig. 1).
# as §1, with “Pgp3. […]” for “Pgp3.”
# Pgp3 H216A = biological target: T2, Pgp3 H216A (Campylobacter jejuni, UniProt Q0P921, H216A); test: ITC with Pgp3 H216A variant; type: binding, C. jejuni
# T2 sequence (Q0P921 21-273 H216A): T1 sequence (Q0P921 21-273 R195A)
# Description: as §2
# as §1, with “Pgp3. […]” for “Pgp3.”
# Pgp3 S169A = biological target: T3, Pgp3 S169A (Campylobacter jejuni, UniProt Q0P921, S169A); test: ITC with Pgp3 S169A variant; type: binding, C. jejuni
# T3 sequence (Q0P921 21-273 S169A): T1 sequence (Q0P921 21-273 R195A)
# Description: as §2
# as §1, with “Pgp3. […]” for “Pgp3.”
# [2] = substrate turnover by Pgp3, Michaelis-Menten fit
compound,measurement,setting,value
Ac-L-Ala^1-γ-D-Glu^2-mDAP^3-D-Ala^4−D-Ala^5 [pentapeptide],Kd,Pgp3 H247A variant,6.8 ± 0.3 µM
CC(=O)N[C@@H](CCNCC(=O)O)C(=O)N[C@H](C)C(=O)NO [BMK-S202],minimum concentration causing morphological changes (helical to curved-rod),C. jejuni ATCC 33560 WT,25~50 μM
same,Kd,Pgp3 WT,6.6 ± 0.3 µM
"FITC-L-Ala^1-D-Glu^2-mDAP^3-D-Ala^4-L-Lys^5-DABCYL [FRET substrate, reference compound]",Km,Pgp3; [2],6.6 ± 0.7 µM
same,kcat,Pgp3; [2],0.0209 ± 0.0006 s⁻¹
NS(=O)(=O)c1ccc(CC(=O)NCC(=O)NO)cc1 [BMK-S302],IC50,Pgp3,244.6 ± 1.4 µM
same,minimum concentration causing morphological changes (helical to curved-rod),C. jejuni ATCC 33560 WT,100 μM
same,Kd,Pgp3 WT,9.9 ± 1.5 µM
NS(=O)(=O)c1ccc(-c2ccc(CC(=O)NO)cc2)cc1 [BMK-S303],IC50,Pgp3,22.3 ± 1.5 µM
same,minimum concentration causing morphological changes (helical to curved-rod),C. jejuni ATCC 33560 WT,400 μM
same,Kd,Pgp3 WT,1.4 ± 0.4 µM
CC(=O)N[C@@H](CCN(CC(=O)O)CC1CCCC1)C(=O)N[C@H](C)C(=O)NO [BMK-S203],intracellular concentration (accumulation),"C. jejuni (ATCC 33560); 100 μM compound, 37 °C, 20 min, LC-MS, mean",0.3 ± 0.1 nmole/10^11 CFU
same,µM (concentration in LC-MS sample),C. jejuni (ATCC 33560),0.0294 µM and 0.0222 µM and 0.0293 µM
same,nmol/1011 CFUs,C. jejuni (ATCC 33560),0.333 nmol/1011 CFUs and 0.240 nmol/1011 CFUs and 0.327 nmol/1011 CFUs
same,Total nmol,C. jejuni (ATCC 33560),0.00294 nmol and 0.00222 nmol and 0.00293 nmol
same,minimum concentration causing morphological changes (helical to curved-rod),C. jejuni ATCC 33560 WT,25~50 μM
same,Kd,Pgp3 WT,1.8 ± 0.4 µM
"pentapeptide (Ac-L-Ala1-γ-D-Glu2-mDAP3-D-Ala4-D-Ala5), peptidoglycan stem peptide",Kd,[1],6.8 µM
CC(=O)N[C@@H](CCN(CC(=O)O)Cc1ccccc1)C(=O)N[C@H](C)C(=O)NO [BMK-S201],µM (concentration in LC-MS sample),C. jejuni (ATCC 33560),0.024 µM and 0.040 µM and 0.056 µM
same,nmol/1011 CFUs,C. jejuni (ATCC 33560),0.60 nmol/1011 CFUs and 0.97 nmol/1011 CFUs and 1.37 nmol/1011 CFUs
same,Total nmol,C. jejuni (ATCC 33560),0.0048 nmol and 0.0079 nmol and 0.0112 nmol
same,Kd,Pgp3 WT,1.3 ± 0.1 µM
CC(=O)N[C@@H](CCC[C@@H](NC(C)=O)C(=O)O)C(=O)N[C@H](C)C(=O)NO [BMK-S101],Kd,Pgp3 R195A,17.8 ± 0.8 µM
same,concentrations without any detectable changes in the cell shape,C. jejuni ATCC 33560 WT,≤ 156 µM
same,minimum concentration causing morphological changes (helical to curved-rod),C. jejuni ATCC 33560 WT,> 313 μM
same,Kd,Pgp3 H216A,10.4 ± 2.6 µM
same,Kd,Pgp3 S169A,28.3 ± 5.8 µM
same,Kd,Pgp3 WT,2.3 ± 0.8 µM
